Among the data in US7468391B2, “Methods for treating retinoid responsive disorders using selective inhibitors of CYP26A and CYP26B” (Allergan, Inc., priority 2003, dated 2008) are IC50 and Kd values, retold here.

One assay addresses T1, CYP26A (P450RAI-1) (Homo sapiens, UniProt O43174).
T1 construct: expressed in transfected cells; host or cells: HeLa
T1 sequence (O43174 1-497): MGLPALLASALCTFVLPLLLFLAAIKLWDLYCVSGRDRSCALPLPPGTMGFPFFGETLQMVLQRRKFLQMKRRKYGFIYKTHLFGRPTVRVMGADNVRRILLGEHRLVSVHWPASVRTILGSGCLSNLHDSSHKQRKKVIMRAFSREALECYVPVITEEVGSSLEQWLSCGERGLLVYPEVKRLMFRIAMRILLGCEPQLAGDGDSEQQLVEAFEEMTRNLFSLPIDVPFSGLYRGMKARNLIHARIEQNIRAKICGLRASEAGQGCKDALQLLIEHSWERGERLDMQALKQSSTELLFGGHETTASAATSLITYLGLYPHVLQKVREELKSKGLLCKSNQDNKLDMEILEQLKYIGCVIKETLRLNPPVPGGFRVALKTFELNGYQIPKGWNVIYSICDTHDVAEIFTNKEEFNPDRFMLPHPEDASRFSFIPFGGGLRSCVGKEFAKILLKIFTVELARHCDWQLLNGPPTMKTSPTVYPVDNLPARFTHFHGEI
Nature of the assay: Cell-based inhibition of RA metabolism in CYP26A stably transfected HeLa cells. Particulars: stably transfected HeLa cells, [3H]-RA, 3 hours at 37° C.; read-out: P450RAI-1 Whole cell IC50. The procedure: (§1) In brief, CYP26A or CYP26B can be stably transfected into HeLa cells. Exponentially growing cells are harvested by incubating in trypsin. Cells are then washed and plated in a 48-well plate at 5×10^5 cells in 0.2 ml MEM medium containing 10% FBS and 0.05 μCi [^3H]-RA in the presence or absence of increasing concentrations of the test compounds. The compounds are diluted in 100% DMSO and then added in triplicate wells at either 10, 1 or 0.1 μM final concentration. As a positive control for RA metabolism inhibition, cells are also incubated with ketoconazole at 100, 10 and 1 μM. Cells are incubated for 3 hours at 37 degrees C. The retinoids are then extracted using the procedure of Bligh et al., Canadian Journal of Biochemistry 37: 911-917 (1959), modified by using methylenechloride instead of chloroform. This publication by Bligh et al., is specifically incorporated herein by reference. The water soluble radioactivity is quantified using a β scintillation counter, and IC50 values are determined.
(§2) CYP26A and CYP26B stably transfected HeLa cells were maintained in 100 mm tissue culture dishes in MEM medium containing 10% FBS and 100 μg/ml hygromycin.
(§3) Exponentially growing cells were harvested by incubating in trypsin. Cells were then washed with 1×PBS and plated in a 48-well plate at 5×10^5 cells in 0.2 ml MEM medium containing 10% FBS and 0.05 μCi [^3H]-RA in the presence or absence of increasing concentrations of the test compounds. The compounds were diluted in 100% DMSO and then added to triplicate wells at final concentrations of 10, 1 or 0.1 μM. As a positive control for RA metabolism inhibition, cells were also incubated with ketoconazole at 100, 10 and 1 μM. Cells were incubated for 3 hours at 37° C. The retinoids were then extracted using a modified Bligh and Dyer procedure (Bligh and Dyer, supra (1959)), in which methylene-chloride, as opposed to chloroform, was used, and the aqueous soluble radioactivity quantified using a β-scintillation counter. ID50 values represent the concentration of inhibitor required to inhibit RA metabolism by 50 percent and were derived manually from log-transformed data.

For the next assay, the target named is T2, RAR β (Homo sapiens, UniProt P10826).
T2 sequence (P10826 1-455): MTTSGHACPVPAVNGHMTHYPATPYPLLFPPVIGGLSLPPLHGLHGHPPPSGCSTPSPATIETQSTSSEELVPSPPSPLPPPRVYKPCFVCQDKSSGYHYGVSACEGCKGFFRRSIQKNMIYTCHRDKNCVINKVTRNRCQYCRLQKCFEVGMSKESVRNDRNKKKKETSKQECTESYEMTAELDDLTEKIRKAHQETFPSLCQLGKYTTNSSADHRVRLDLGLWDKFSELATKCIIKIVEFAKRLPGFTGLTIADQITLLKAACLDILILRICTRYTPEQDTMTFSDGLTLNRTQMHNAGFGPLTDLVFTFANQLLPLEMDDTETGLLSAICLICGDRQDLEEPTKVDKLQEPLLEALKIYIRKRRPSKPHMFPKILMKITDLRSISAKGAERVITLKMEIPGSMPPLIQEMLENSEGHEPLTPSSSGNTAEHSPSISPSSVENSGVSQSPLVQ
Description: RAR β Kd. The class given is binding. The settings on record: last item of cell EC50/(EFFICACY)/Kd.

Another assay addresses T3, RAR γ (Homo sapiens, UniProt P13631).
T3 sequence (P13631 1-454): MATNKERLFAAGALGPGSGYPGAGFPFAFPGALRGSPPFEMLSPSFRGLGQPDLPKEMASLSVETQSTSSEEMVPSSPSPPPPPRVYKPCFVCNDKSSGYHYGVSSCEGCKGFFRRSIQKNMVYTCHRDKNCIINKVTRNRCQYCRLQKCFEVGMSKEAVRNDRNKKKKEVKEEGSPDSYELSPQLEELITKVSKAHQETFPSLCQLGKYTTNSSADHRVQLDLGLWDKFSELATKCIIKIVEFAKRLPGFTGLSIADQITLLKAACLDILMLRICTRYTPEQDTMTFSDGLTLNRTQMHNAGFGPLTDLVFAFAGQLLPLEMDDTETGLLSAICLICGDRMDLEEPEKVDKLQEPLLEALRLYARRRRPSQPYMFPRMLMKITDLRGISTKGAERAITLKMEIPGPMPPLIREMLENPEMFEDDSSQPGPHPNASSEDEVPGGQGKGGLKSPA
Nature of the assay: RAR γ Kd. In kind it is binding. Particulars: last item of cell EC50/(EFFICACY)/Kd.

Another assay deals with T4, CYP26B (P450RAI-2) (Homo sapiens, UniProt Q9NR63).
T4 construct: expressed in transfected cells; host or cells: HeLa
T4 sequence (Q9NR63 1-512): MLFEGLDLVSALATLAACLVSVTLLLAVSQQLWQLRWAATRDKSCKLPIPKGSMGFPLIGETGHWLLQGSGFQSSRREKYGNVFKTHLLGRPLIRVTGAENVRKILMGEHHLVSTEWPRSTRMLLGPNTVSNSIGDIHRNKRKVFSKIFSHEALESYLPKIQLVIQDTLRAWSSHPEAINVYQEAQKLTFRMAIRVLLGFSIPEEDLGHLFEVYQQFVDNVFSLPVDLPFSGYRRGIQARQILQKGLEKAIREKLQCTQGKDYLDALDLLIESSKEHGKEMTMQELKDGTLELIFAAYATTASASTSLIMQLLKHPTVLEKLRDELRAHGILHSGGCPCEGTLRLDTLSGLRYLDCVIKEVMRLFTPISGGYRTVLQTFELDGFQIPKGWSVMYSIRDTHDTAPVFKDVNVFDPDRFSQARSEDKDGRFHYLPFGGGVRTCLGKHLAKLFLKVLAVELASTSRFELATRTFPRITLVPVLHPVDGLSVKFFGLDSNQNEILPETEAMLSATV
Nature of the assay: Cell-based inhibition of RA metabolism in CYP26B stably transfected HeLa cells. The settings on record: stably transfected HeLa cells, [3H]-RA, 3 hours at 37° C.; read-out: P450RAI-2 Whole cell IC50. The procedure:
as §1, §2, §3

For a further assay, the target named is T5, RAR α (Homo sapiens, UniProt P10276).
T5 sequence (P10276 1-462): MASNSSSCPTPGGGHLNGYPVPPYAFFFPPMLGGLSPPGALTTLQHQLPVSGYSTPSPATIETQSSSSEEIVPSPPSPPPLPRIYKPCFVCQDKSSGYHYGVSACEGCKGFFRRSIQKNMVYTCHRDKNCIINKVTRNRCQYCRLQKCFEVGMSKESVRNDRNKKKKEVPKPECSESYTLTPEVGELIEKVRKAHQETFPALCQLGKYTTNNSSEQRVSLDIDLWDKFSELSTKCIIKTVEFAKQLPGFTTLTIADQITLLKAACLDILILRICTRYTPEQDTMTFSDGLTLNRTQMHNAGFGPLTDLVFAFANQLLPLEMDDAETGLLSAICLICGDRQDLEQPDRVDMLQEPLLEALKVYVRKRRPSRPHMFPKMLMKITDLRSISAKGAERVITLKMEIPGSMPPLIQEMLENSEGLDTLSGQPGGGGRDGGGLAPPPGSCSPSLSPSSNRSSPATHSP
Nature of the assay: RAR α Kd. The class given is binding. Particulars: last item of cell EC50/(EFFICACY)/Kd.

Regarding `CC(C(=O)O)c1ccc(C#Cc2cc(C3CC3)c3c(c2)C(C)(C)CC2(CC2)O3)cc1` (stereo not drawn) [Compound 1, 2-{4-[(8-Cyclopropyl-3,4-dihydro-4,4-dimethylspiro[2H-1-benzopyran-2,1′-cyclopropane]-6-yl)ethynyl]-phenyl}-propionic acid], the IC50 (in general, the concentration that inhibits the measured activity by half) turned out to be 0.009 µM on CYP26A (P450RAI-1) and 8 µM on CYP26B (P450RAI-2). Also, the Kd (commonly a measure of binding affinity in units of concentration) at RAR β stood at 3.02 µM; at RAR γ, 3.49 µM; at RAR α it was 2.09 µM.

As for `CC1(C)CC2(CC2)Oc2c(C3CC3)cc(C#Cc3ccc(C(C)(C)C(=O)O)cc3)cc21` [Compound 2, 2-{4-[(8-Cyclopropyl-3,4-dihydro-4,4-dimethylspiro[2H-1-benzopyran-2,1′-cyclopropane]-6-yl)ethynyl]-phenyl}-2-methyl-propionic acid], the IC50 at CYP26A (P450RAI-1) was 0.03 µM; on CYP26B (P450RAI-2) it was over 10 µM. Further, the Kd on RAR β worked out at 3.44 µM; at RAR γ it was 5.58 µM; on RAR α it was 0.558 µM.

Consider `CN(Cc1cc(C#Cc2ccc(CC(=O)O)cc2)cc2c1OC(C)(C)CC2(C)C)C1CC1` [Compound 6, (4-{8-[(Cyclopropyl-methyl-amino)-methyl]-2,2,4,4-tetramethyl-chroman-6-ylethynyl}phenyl)-acetic acid], for which the IC50 stood at 0.06 µM on CYP26A (P450RAI-1) and 4 µM at CYP26B (P450RAI-2). The Kd on RAR β is over 10 µM; on RAR γ, over 10 µM; at RAR α, 3.41 µM.

For the molecule `CN(Cc1cc(C#Cc2ccc(CC(=O)O)c(F)c2)cc2c1OC(C)(C)CC2(C)C)C1CC1` [Compound 7, (4-{8-[(Cyclopropyl-methyl-amino)-methyl]-2,2,4,4-tetramethyl-chroman-6-ylethynyl}-2-fluoro-phenyl)-acetic acid], the IC50 on CYP26A (P450RAI-1) was found to be 0.04 µM; on CYP26B (P450RAI-2) it was 2 µM. Moreover, the equilibrium dissociation constant (Kd) on RAR β, on RAR γ and at RAR α was over 10 µM each time.

Take `CN(Cc1cc(C#Cc2ccc(C(C)(C)C(=O)O)cc2)cc2c1OC(C)(C)CC2(C)C)C1CC1` [Compound 9, 2-(4-{8-[(Cyclopropyl-methyl-amino)-methyl]-2,2,4,4-tetramethyl-chroman-6-ylethynyl}-phenyl)-2-methyl-propionic acid]: the values for the concentration for half-maximal inhibition (IC50) at CYP26A (P450RAI-1) and at CYP26B (P450RAI-2) were 0.12 µM and over 10 µM, respectively. Also, the Kd at RAR β, at RAR γ and at RAR α was over 10 µM each time.

Take `CC(C(=O)O)c1ccc(C#Cc2cc(O)c3c(c2)C(C)(C)CC(C)(C)O3)cc1` (stereo not drawn) [Compound 11, 2-[4-(8-Hydroxy-2,2,4,4-tetramethyl-chroman-6-ylethynyl)-phenyl]-propionic acid]: the IC50 on CYP26A (P450RAI-1) came out at 0.07 µM; at CYP26B (P450RAI-2) it was 3 µM. Also, the Kd at RAR β, at RAR γ and at RAR α was over 10 µM in each case.

Take `CC(C)N(Cc1cc(C(=O)Oc2ccc(CC(=O)O)cc2)cc2c1OC(C)(C)CC2(C)C)C1CC1` [Compound 17, 8-[(Cyclopropyl-isopropyl-amino)-methyl]-2,2,4,4-tetramethyl-chroman-6-carboxylic acid 4-carboxymethyl-phenyl ester]: the concentration for half-maximal inhibition (IC50) was 2.5 µM at CYP26A (P450RAI-1) and over 10 µM on CYP26B (P450RAI-2).

Turning to `CC(C)OC(=O)c1cc(C#Cc2ccc(CC(=O)O)cc2)cc2c1OC(C)(C)CC2(C)C` [Compound 18, 6-(4-Carboxymethyl-phenylethynyl)-2,2,4,4-tetramethyl-chroman-8-carboxylic acid isopropyl ester], the figures for the IC50 at CYP26A (P450RAI-1) and at CYP26B (P450RAI-2) were 0.4 µM and over 10 µM, respectively.

As to `CC(C)(C)COC(=O)c1cc(C#Cc2ccc(CC(=O)O)cc2)cc2c1OC(C)(C)CC2(C)C` [Compound 19, 6-(4-Carboxymethyl-phenylethynyl)-2,2,4,4-tetramethyl-chroman-8-carboxylic acid 2,2-dimethylpropyl ester], the IC50 on CYP26A (P450RAI-1) is 7 µM; at CYP26B (P450RAI-2) it was over 10 µM.

As for `CC(C)(C)OC(=O)c1cc(C#Cc2ccc(CC(=O)O)cc2)cc2c1OC(C)(C)CC2(C)C` [Compound 20, 6-(4-Carboxymethyl-phenylethynyl)-2,2,4,4-tetramethyl-chroman-8-carboxylic acid tert-butyl ester], the IC50 on CYP26A (P450RAI-1) is 2.9 µM; on CYP26B (P450RAI-2), over 10 µM.

Turning to `CC(C(=O)O)c1ccc(C#Cc2cc(C3CC3)c3c(c2)C(C)(C)CCC3N(C)C2CC2)cc1` (stereo not drawn) [Compound 49, 2-{4-[4-Cyclopropyl-5-(cyclopropyl-methyl-amino)-8,8-dimethyl-5,6,7,8-tetrahydro-naphthalen-2-ylethynyl]-phenyl}-propionic acid], the IC50 at CYP26A (P450RAI-1) is 0.05 µM. Also, the Kd was over 10 µM at RAR β, over 10 µM on RAR γ and 5.28 µM on RAR α.
